Among the data in US8404709B2, “Substituted 4-aryl-1,4-dihydro-1,6-naphthyridines and use thereof” (Bayer Intellectual Property GmbH, priority 2007, dated 2013) are IC50 values, retold here.

Molecules are shown by their SMILES.

This experiment addresses T1, human mineralocorticoid receptor (MR) (Homo sapiens, UniProt P08235).
T1 construct: expressed in transfected cells; host or cells: CHO K1
T1 sequence (P08235 734-984 limits assumed): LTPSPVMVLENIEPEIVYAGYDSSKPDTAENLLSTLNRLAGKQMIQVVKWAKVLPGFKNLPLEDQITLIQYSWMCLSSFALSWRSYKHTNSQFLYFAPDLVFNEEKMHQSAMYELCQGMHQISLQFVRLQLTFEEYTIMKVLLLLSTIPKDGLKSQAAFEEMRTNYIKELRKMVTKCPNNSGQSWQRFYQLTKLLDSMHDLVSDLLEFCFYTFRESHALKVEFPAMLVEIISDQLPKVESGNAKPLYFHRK
As to the kind of experiment: Cellular in vitro assay to determine the inhibitory MR activity (GAL4-MR chimera, luciferase reporter, CHO K1 cells). In kind it is cell-based. The note with it: recombinant CHO K1 cells, GAL4-MR ligand-binding domain chimera, agonist aldosterone, luciferase readout. From the text:
1. Cellular In Vitro Assay to Determine the Inhibitory MR Activity and MR Selectivity Compared with other Steroid Hormone Receptors
Antagonists of the human mineralocorticoid receptor (MR) are identified, and the activity of the compounds described herein is quantified with the aid of a recombinant cell line. The cell is originally derived from a hamster ovary epithelial cell (Chinese Hamster Ovary, CHO K1, ATCC: American Type Culture Collection, VA 20108, USA).
An established chimera system in which the ligand-binding domains of human steroid hormone receptors are fused to the DNA-binding domain of the yeast transcription factor GAL4 is used in this CHO K1 cell line. The GAL4-steroid hormone receptor chimeras produced in this way are cotransfected and stably expressed with a reporter construct in the CHO cells.
To generate the GAL4-steroid hormone receptor chimeras, the GAL4 DNA binding domain (amino acids 1-147) from the vector pFC2-dbd (from Stratagene) is cloned with the PCR-amplified ligand-binding domains of the mineralocorticoid receptor (MR, amino acids 734-985), of the glucocorticoid receptor (GR, amino acids 443-777), of the progesterone receptor (PR, amino acids 680-933) and of the androgen receptor (AR, amino acids 667-919) into the vector pIRES2 (from Clontech). The reporter construct, which comprises five copies of the GAL4 binding site upstream of a thymidine kinase promoter, leads to expression of firefly-luciferase (Photinus pyralis) after activation and binding of the GAL4-steroid hormone receptor chimeras by the respective specific agonists aldosterone (MR), dexamethasone (GR), progesterone (PR) and dihydrotestosterone (AR).
The MR, GR, PR and AR cells are plated out in medium (Optimem, 2.5% FCS, 2 mM glutamine, 10 mM HEPES) in 96- (or 384- or 1536-) well microtiter plates on the day before the assay and are kept in a cell incubator (96% humidity, 5% v/v CO2, 37° C.). On the day of the assay, the substances to be tested are taken up in the abovementioned medium and added to the cells. About 10 to 30 minutes after addition of the test substances, the respective specific agonists of the steroid hormone receptors are added. After a further incubation time of 5 to 6 hours, the luciferase activity is measured with the aid of a video camera. The measured relative light units as a function of the substance concentration result in a sigmoidal stimulation curve. The IC50 values are calculated with the aid of the GraphPad PRISM computer program (Version 3.02).
(In general: A reporter such as luciferase makes a cellular process visible.)

By IC50 is commonly meant the point on the concentration scale where inhibition reaches its midpoint. In the case of `CCOc1nccc2c1C(c1cccc3c(=O)cc(C)oc13)C(C#N)=C(C)N2` (stereo not drawn) [Example 4, 5-Ethoxy-2-methyl-4-(2-methyl-4-oxo-4H-chromen-8-yl)-1,4-dihydro-1,6-naphthyridine-3-carbo-nitrite], the IC50 was determined as 273 nM. Take `CCS(=O)(=O)Oc1nccc2c1C(c1cccc3c(=O)cc(C)oc13)C(C(C)=O)=C(C)N2` (stereo not drawn) [Example 10, 3-Acetyl-2-methyl-4-(2-methyl-4-oxo-4H-chromen-8-yl)-1,4-dihydro-1,6-naphthyridin-5-yl ethane-sulfonate]: the IC50 worked out at 75 nM. In the case of `CCOc1nccc2c1C(c1ccc(C#N)cc1OC(F)(F)F)C(C(C)=O)=C(C)N2` (stereo not drawn) [Example 21, 4-(3-Acetyl-5-ethoxy-2-methyl-1,4-dihydro-1,6-naphthyridin-4-yl)-3-(trifluoromethoxy)benzonitrile], the half-maximal inhibitory concentration (IC50) was determined as 30 nM.

Regarding `CCOc1nccc2c1C(c1ccc(C#N)cc1CC)C(C(C)=O)=C(C)N2` (stereo not drawn) [Example 24, 4-(3-Acetyl-5-ethoxy-2-methyl-1,4-dihydro-1,6-naphthyridin-4-yl)-3-ethylbenzonitrile], the IC50 is 31 nM. In the case of `CCOc1nccc2c1C(c1ccc(C#N)cc1OC)C(C#N)=C(C)N2` (stereo not drawn) [Example 25, 4-(4-Cyano-2-methoxyphenyl)-5-ethoxy-2-methyl-1,4-dihydro-1,6-naphthyridine-3-carbonitrile], the IC50 was determined as 87 nM. On to `CCOc1nccc2c1C(c1ccc(C#N)c3ccccc13)C(C(C)=O)=C(C)N2` (stereo not drawn) [Example 32, 4-(3-Acetyl-5-ethoxy-2-methyl-1,4-dihydro-1,6-naphthyridin-4-yl)-1-naphthonitrile], for which the IC50 was 4 nM.

As to `CCOc1nccc2c1C(c1ccc(C#N)cc1OC)C(C#N)=C(C(F)(F)F)N2` (stereo not drawn) [Example 33, 4-(4-Cyano-2-methoxyphenyl)-5-ethoxy-2-(trifluoromethyl)-1,4-dihydro-1,6-naphthyridine-3-carbonitrile], the IC50 was found to be 35 nM.

Take `CCOc1nc(C)cc2c1C(c1ccc(C#N)cc1OC)C(C#N)=C(C)N2` (stereo not drawn) [Example 35, 4-(4-Cyano-2-methoxyphenyl)-5-ethoxy-2,7-dimethyl-1,4-dihydro-1,6-naphthyridine-3-carbonitrile]: the IC50 stood at 122 nM. For `CCOc1ncc(C)c2c1C(c1ccc(C#N)cc1OC)C(C#N)=C(C)N2` (stereo not drawn) [Example 37, 4-(4-Cyano-2-methoxyphenyl)-5-ethoxy-2,8-dimethyl-1,4-dihydro-1,6-naphthyridine-3-carbonitrile], the IC50 was found to be 73 nM.
